Laboratory results as given in PubChem BioAssay (NCI).
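How tested: cells in 96-well plates exposed to compound for 48 hours at five concentrations. Here, GI50 denotes the concentration required for 50% inhibition of growth. The concentration for full growth arrest is given as TGI.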

Experiments:
Test in all cases: inhibition of tumour cell growth, NCI panel, 48 h
SF-295 CNS = test system: SF-295 CNS
HCC-2998 colon = test system: HCC-2998 colon
OVCAR-8 ovarian = test system: OVCAR-8 ovarian
KM12 colon = test system: KM12 colon
HCT-15 colon = test system: HCT-15 colon
OVCAR-4 ovarian = test system: OVCAR-4 ovarian
M14 melanoma = test system: M14 melanoma
SW-620 colon = test system: SW-620 colon
NCI-H522 lung = test system: NCI-H522 lung
HOP-92 NSCLC = test system: HOP-92 NSCLC

Structure (SMILES) | GI50 (SF-295 CNS) [µM] | TGI (SF-295 CNS) [µM] | GI50 (HCC-2998 colon) [µM] | TGI (HCC-2998 colon) [µM] | GI50 (OVCAR-8 ovarian) [µM] | TGI (OVCAR-8 ovarian) [µM] | GI50 (KM12 colon) [µM] | TGI (KM12 colon) [µM] | GI50 (HCT-15 colon) [µM] | TGI (HCT-15 colon) [µM] | GI50 (OVCAR-4 ovarian) [µM] | TGI (OVCAR-4 ovarian) [µM] | GI50 (M14 melanoma) [µM] | TGI (M14 melanoma) [µM] | GI50 (SW-620 colon) [µM] | TGI (SW-620 colon) [µM] | GI50 (NCI-H522 lung) [µM] | TGI (NCI-H522 lung) [µM] | GI50 (HOP-92 NSCLC) [µM] | TGI (HOP-92 NSCLC) [µM]
CC(=O)N1CCN(CCOc2ccc(C3CCN(C4=Nn5c(nnc5C(F)(F)F)CC4)CC3)cc2)CC1 | 12.2 | > 85.9 | 21.6 | > 100 | 36 | > 100 | 31.5 | > 100 | 14 | > 100 | 8.55 | > 100 | 11.1 | > 100 | > 100 | > 100 | 5 | > 100 | 7.64 | > 100
O=C(/C(=C/c1ccccc1)c1ccccc1)N1c2ccccc2CC1c1c[nH]c2ccccc12 (configuration not stated) | – | > 100 | – | > 100 | – | > 100 | – | > 100 | – | > 100 | – | > 100 | – | > 100 | – | > 100 | – | > 100 | – | > 100
COC(=O)[C@]12CC[C@@H](C)[C@H](C)[C@@H]1C1=CC[C@@H]3[C@@]4(C)CC(=O)[C@H](OC(=O)c5ccco5)[C@@]5(C)COC(=C45)C[C@@]3(C)[C@]1(C)CC2 | 28.3 | > 100 | – | > 100 | 2.47 | > 100 | 2.22 | > 100 | 0.54 | > 100 | 2.12 | > 100 | 0.654 | > 100 | 0.902 | > 100 | 3.1 | > 100 | 14.9 | > 100
O=C(CCl)Nc1cc(O)c2c(c1)C(=O)c1cccc(O)c1C2=O | 2.28 | 7.69 | 1.75 | 3.4 | 2.09 | 7.65 | 1.74 | 3.4 | 0.62 | 2.01 | 1.96 | 7.23 | 1.25 | 3.45 | 1.1 | 3.95 | 0.172 | 0.384 | 1.79 | 3.63
CCOC(=O)/N=c1/nc(N(C)C)ss1 | – | > 100 | – | > 100 | – | > 100 | – | > 100 | – | > 100 | – | > 100 | – | > 100 | – | > 100 | – | > 100 | – | > 100
COC(=O)C1CC(C(=O)OC)c2nc3cc(C)c(C)cc3nc21 (configuration not stated) | – | > 100 | – | > 100 | – | > 100 | – | > 100 | – | > 100 | – | > 100 | – | > 100 | – | > 100 | – | > 100 | – | > 100
O=C(Nc1ccc(I)cc1F)c1cc(I)ccc1O | 0.8 | 2.14 | 2.63 | 15.1 | 0.802 | > 100 | 1.01 | 3.85 | 0.452 | 19.7 | 0.798 | > 100 | 0.773 | 3.75 | 0.866 | > 36 | 0.327 | 21.8 | 0.179 | 0.777
CN1CCN(CCOc2ccc(-c3cnc4c(-c5ccc(F)cc5)cnn4c3)cc2)CC1 | 1.73 | 3.23 | 1.77 | 3.45 | 2.14 | 5.08 | 1.06 | 2.36 | 1.32 | 2.75 | 1.43 | 3.61 | 1.96 | 3.7 | 1.89 | 3.56 | 1.87 | 3.94 | 1.43 | 3.3
Cc1ccc(S(=O)OC23CC4CC(CC(C4)C2)C3)cc1 (configuration not stated) | – | > 100 | – | > 100 | – | > 100 | – | > 100 | – | > 100 | – | > 100 | – | > 100 | – | > 100 | – | > 100 | – | > 100
COc1cc([C@@H]2c3cc4c(cc3C(OC3O[C@@H]5COC(C)O[C@H]5[C@H](O)[C@H]3O)C3COC(=O)[C@@H]32)OCO4)cc(OC)c1O (some centres not stated) | 0.72 | 9.83 | 1.91 | 11.2 | 1.56 | > 34.8 | 2.46 | > 24.4 | 8.4 | > 50 | 14.4 | > 50 | 1.37 | 7.83 | 0.67 | > 27.2 | 0.65 | 4.91 | 0.397 | 9.97
CCCCOc1ccc(/C=N/Nc2cc(C)nc3ccc(Cl)cc23)cc1 | 1.66 | 3.1 | 1.91 | 3.38 | 1.78 | 3.46 | 1.93 | 3.87 | 1.35 | 2.74 | 1.56 | 3 | 1.89 | 3.91 | – | – | 1.72 | 3.29 | 1.43 | 2.99
